Experimental findings from patent US12486246B2, “Replication protein A (RPA)-DNA interaction inhibitors” (THE TRUSTEES OF INDIANA UNIVERSITY, priority 2019, dated 2025) are described below.

In series [1] the target is T1, full length heterotrimeric human RPA (Homo sapiens, UniProt P27694).
T1 construct: Full length, heterotrimeric human RPA (fl-RPA) and DBD-A/B constructs were expressed and purified; made in house
Description: Electrophoretic mobility shift assay (EMSA), binding of full length human RPA to ssDNA. The note with it: full length human RPA binding to DNA, mean ± SD of minimum triplicate experiments. The gist of the method: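 Full-length human RPA (50 nM) preincubated 30 min with compound (DMSO ≤5%), then 2.5 nM 5′-32P 34-base ssDNA added for 5 min at room temperature in 20 mM HEPES pH 7.8, 50 mM NaCl. Bound/unbound resolved by 6% native PAGE, phosphorimager quantified; IC50 by non-linear regression.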

Series [2] is described as follows: Aqueous solubility as a function of pH. Type of series: physicochemical. The note with it: thermodynamic from solid. The protocol: (§1) Aqueous solubility was determined by suspending compound in un-buffered water with stirring. Insoluble material was removed by sedimentation or filtration and soluble compound quantified by absorbance spectroscopy and LC/MS. pH dependence was determined by suspending compound in 10 mM citrate buffer at pH 4.0 or 10 mM phosphate […] as described above in the description.
(§2) The morpholine ring is commonly introduced into solvent exposed regions as a privileged solubilizing group to improve solubility or pharmacokinetic properties including metabolic stability of a prospective drug scaffold which is exemplified by many FDA approved drugs. Modifications on Ring A had less of an effect than the morpholino modifications at the alkyl carboxylic acid side chain. To determine the effect of pH on solubility, we prepared solution at 1 mM in citrate buffer at pH 4, phosphate buffer at pH 7 and carbonate buffer at pH 9.5.

For series [3], the system named is A2780 epithelial ovarian cancer (EOC) cells. Description: Cell survival, single agent. Type of series: cell-based. The protocol: (§3) Cell survival was determined by CCK-8 viability assay and/or clonogenic survival assay in 96 well plates or 24 well plates, respectively and combination index (CI) analysis of drug-drug interactions determined by Chou-Talalay analysis as we have previously described. • 1) CCK-8 metabolic assay: Cells were plated (2500 cells/well) in 96-well plate and allowed to grow for at least 18 hours in at 37° C. in the presence of 5% CO2 before treatment with inhibitor for 48 hours. CCK-8 solution (Dojindo) was added to 10% of the total media volume and after 1-4 hours of incubation absorbance at 450 nm was determined using BioTek® Synergy™ H1 hybrid multi-mode microplate reader • 2) Clonogenic survival assay: Cells were plated in a 24 well (20,000 cells/well) plate, incubated for at least 18 hours and then treated with inhibitor. […] Images of the stained colonies were captured with a Fuji LAS-3000 CCD system then counted using OpenCFU software. Viability is determined as a percent of vehicle controls and plotted versus drug concentration. • 3) Assessment of synergy via combination index (CI): In the combination index studies, cells (H460 or SKGT4) were treated with RPA inhibitor and Pt/etoposide/bleomycin/taxol/DDR inhibitor alone as well as the combination of both—the inhibitor and the DNA damaging chemotherapeutic agent/DDR inhibitor. […]

For series [4], the system named is GCT27 testicular cancer cells. Description: Cell survival, single agent. Type of series: cell-based. The protocol: as §3
Series [5] can be described thus: Aqueous solubility in unbuffered water. Conditions: 43, 44, 45, 46, 47 vs 9, 16, 26, 28, 29 respectively. Type of series: physicochemical. The protocol:
as §1, §2

In brackets after ≈: the same amount, converted by molar mass.

T1 sequence (P27694 whole entry): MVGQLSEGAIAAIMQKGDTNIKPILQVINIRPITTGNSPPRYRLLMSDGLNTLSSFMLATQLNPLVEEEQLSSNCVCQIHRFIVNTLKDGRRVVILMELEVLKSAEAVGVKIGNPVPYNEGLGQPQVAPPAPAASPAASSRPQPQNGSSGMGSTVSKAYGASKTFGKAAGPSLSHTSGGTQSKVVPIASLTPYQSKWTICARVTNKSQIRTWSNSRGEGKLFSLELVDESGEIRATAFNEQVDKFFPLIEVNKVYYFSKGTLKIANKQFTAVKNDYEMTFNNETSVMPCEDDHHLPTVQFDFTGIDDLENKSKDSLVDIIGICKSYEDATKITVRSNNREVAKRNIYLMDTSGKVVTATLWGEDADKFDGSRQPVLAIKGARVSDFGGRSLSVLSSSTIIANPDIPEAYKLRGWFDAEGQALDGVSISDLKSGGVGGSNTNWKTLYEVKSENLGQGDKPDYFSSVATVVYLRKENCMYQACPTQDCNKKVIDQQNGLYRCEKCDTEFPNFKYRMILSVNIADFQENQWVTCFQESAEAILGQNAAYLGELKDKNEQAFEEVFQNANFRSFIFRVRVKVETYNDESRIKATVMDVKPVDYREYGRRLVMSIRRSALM
T1 sequence (P15927 whole entry partner): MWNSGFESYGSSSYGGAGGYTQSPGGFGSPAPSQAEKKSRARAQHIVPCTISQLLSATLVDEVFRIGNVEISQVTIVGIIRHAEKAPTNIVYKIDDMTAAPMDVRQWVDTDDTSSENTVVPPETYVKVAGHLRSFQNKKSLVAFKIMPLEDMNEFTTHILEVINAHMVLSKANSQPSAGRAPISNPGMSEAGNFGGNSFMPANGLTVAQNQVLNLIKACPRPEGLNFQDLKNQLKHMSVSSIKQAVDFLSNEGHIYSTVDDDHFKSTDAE
T1 sequence (P35244 whole entry partner): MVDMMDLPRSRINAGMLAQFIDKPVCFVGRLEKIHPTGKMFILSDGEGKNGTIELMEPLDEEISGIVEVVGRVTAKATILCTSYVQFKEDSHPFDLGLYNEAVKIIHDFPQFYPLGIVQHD

`CCOc1ccc2cc(C3CC(c4ccc(I)cc4)=NN3C(=O)CCCC(=O)NCCCN3CCOCC3)c(Cl)nc2c1` (stereo not shown) [Compound 43, 5-(5-(2-Chloro-7-ethoxyquinolin-3-yl)-3-(4-iodophenyl)-4,5-dihydro-1H-pyrazol-1-yl)-N-(3-morpholinopropyl)-5-oxopentanamide]: the IC50 in series [1] worked out at 4.99 ± 0.28 µM. The solubility was 3.62 ± 2.22 µM (≈ 2.6 µg/mL) in series [2] (aqueous buffer at pH 9.5, pH 9.5, aqueous buffer); 21.4 ± 5.49 µM (≈ 15.4 µg/mL) in series [2] (aqueous buffer, pH 4, citrate buffer); 5.72 ± 2.79 µM (≈ 4.11 µg/mL) in series [2] (aqueous buffer, pH 7, phosphate buffer). The “cytotoxicity as compared to H460 NSCLC cells” value in series [3] and in series [4] was “increased cytotoxicity” throughout. Further, the “aqueous solubility compared to carboxylic acid counterpart (in words)” value in series [5] is given as “increased solubility”.
